Legend:
[1] = tested on: Erk; assay: Activation of Erk (phospho-Erk Western blot) in HUVEC; assay type: cell-based, human; details: 100 μg/ml anti-CD44v6, 100 ng/ml peptide, 0.5 μg/ml CD44v6ECD; for VEGF-A165 induced activation of Erk: VEGF-A165 40 ng/ml
Description: (§1) Activation of RTKs and Erk Serum starved cells (24 h) were induced with the growth factor HGF (20 ng/ml) at 37° C. for 5 min or with VEGF-A165 or VEGF-A121 (40 ng/ml) at 37° C. for 8 min. Where indicated, the cells were treated with blocking reagents prior to induction at 37° C. for 10 min (100 μg/ml anti-CD44v6, 100 ng/ml v6 peptide or 100 ng/ml control peptide, 0.5 μg/ml CD44v6ECD). Cells were washed with icecold PBS. To detect activated Erk, cells were lysed in boiling SDS-sample buffer containing 100 mM dithiothreitol (DTT) and subjected to Western blot analysis using antibodies against phosphorylated Erk. The Erk loading control was performed on the same blot stripped (62.5 mM Tris pH 6.8, 2% SDS, 0.8% DTT) and probed with the Erk antibody. To detect activated VEGFR-2, cells were lysed in reducing sample buffer and the blots of SDS-PAGE gels were probed with an antibody against phosphorylated VEGFR-2. Alternatively, lysates (20 mM Tris pH 7.4, 1 mM EDTA, 1 mM EGTA, 1 mM DTT, 25 mM NaCl, 1.5% Triton X-100, 10 mM NaF, 1 mM PMSF, 1 mM Na-orthovanadate, 1 mM aprotinin and leupeptin) were prepared. After centrifugation, the cleared lysates (12,000 rpm for 15 min) were incubated with VEGFR-2 antibody (clone A-3, Santa Cruz, Heidelberg, Germany) or a mouse IgG control (Santa Cruz, Heidelberg, Germany) at 4° C. overnight followed by incubation with Protein A/G agarose beads (Merck, Darmstadt, Germany) for 2 h at 4° C. The beads were washed three times, boiled in sample buffer and subjected to Western blot analysis using phospho-specific VEGFR-2 antibody. To obtain the loading control, the blots were stripped and reprobed with the VEGFR-2 antibody. Blots were stained using the enhanced chemiluminescence system (ECL, Thermo Fischer Scientific Inc., Waltham, Mass.). Bands in Western blot analysis were quantified with the program Image J.

[2] = molecular target: T1, VEGFR-2 (Homo sapiens, UniProt P35968); assay: Activation of VEGFR-2 (phospho-VEGFR-2 Western blot) in HUVEC; assay type: cell-based; details: 100 μg/ml anti-CD44v6, 100 ng/ml peptide
T1 construct: endogenous in cells; host or cells: HUVEC (Provitro GmbH)
Description: as §1, with “After centrifugation, the cleared lysates (12,000 rpm for 15 min) were incubated with VEGFR-2 antibody (clone A-3, Santa Cruz, Heidelberg, Germany) or a mouse IgG control (Santa Cruz, Heidelberg, Germany) at 4° C. overnight followed by incubation with Protein A/G agarose beads (Merck, Darmstadt, Germany) for 2 h at 4° C. The beads were washed three times, boiled in sample buffer and subjected to Western blot analysis using phospho-specific VEGFR-2 antibody. To obtain the loading control, the blots were stripped and reprobed with the VEGFR-2 antibody. Blots were stained using the enhanced chemiluminescence system (ECL, Thermo Fischer Scientific Inc., Waltham, Mass.).” left out

[3] = tested on: MDA-MB231 tumors; assay: Orthotopic MDA-MB231 mammary tumor model, tumor-induced angiogenesis; assay type: in vivo, SCID mice
Description: Injections of tumor cells MDA-MB231 cells (1×10^6 per animal) were harvested at subconfluency, washed with PBS and resuspended in 50 μl of PBS. The cells were implanted through a skin incision with an insulin syringe very slowly into the mammary fat pad of the fourth mammary complex of anesthetized female SCID mice (strain C.B-17/Ztm-scid). The incision was closed using an interrupted Vicryl suture for the skin (5/0, Ethicon, Norderstedt, Germany). The tumors were allowed to grow for one week, then the animals were divided in groups (6 to 7 animals per group) and treated with 20 μg of anti-mouse CD44v6 (clone 9A4), control IgG (NatuTec, Frankfurt, Germany), mouse v6 peptide or control peptide three times per week i.p. Tumor growth was monitored once per week using a caliper or via fpVCT imaging (see below). The animals were sacrificed 5 weeks after tumor cell implantation, the tumors were excised, measured, divided in halves and fixed in 4% formalin or zinc fixative (0.5 g/l calcium acetate, 5 g/l zinc acetate, 5 g/l zinc chloride in 0.1 M Tris pH 7.4) for 24 h for immunohistological analysis. L3.6pl human pancreatic cancer cells were injected orthotopically. Briefly, a small left abdominal flank incision was made and the spleen was exteriorized. […] The tumor volume was calculated as length×height×width divided by 2. […]

T1 sequence (P35968 20-1356): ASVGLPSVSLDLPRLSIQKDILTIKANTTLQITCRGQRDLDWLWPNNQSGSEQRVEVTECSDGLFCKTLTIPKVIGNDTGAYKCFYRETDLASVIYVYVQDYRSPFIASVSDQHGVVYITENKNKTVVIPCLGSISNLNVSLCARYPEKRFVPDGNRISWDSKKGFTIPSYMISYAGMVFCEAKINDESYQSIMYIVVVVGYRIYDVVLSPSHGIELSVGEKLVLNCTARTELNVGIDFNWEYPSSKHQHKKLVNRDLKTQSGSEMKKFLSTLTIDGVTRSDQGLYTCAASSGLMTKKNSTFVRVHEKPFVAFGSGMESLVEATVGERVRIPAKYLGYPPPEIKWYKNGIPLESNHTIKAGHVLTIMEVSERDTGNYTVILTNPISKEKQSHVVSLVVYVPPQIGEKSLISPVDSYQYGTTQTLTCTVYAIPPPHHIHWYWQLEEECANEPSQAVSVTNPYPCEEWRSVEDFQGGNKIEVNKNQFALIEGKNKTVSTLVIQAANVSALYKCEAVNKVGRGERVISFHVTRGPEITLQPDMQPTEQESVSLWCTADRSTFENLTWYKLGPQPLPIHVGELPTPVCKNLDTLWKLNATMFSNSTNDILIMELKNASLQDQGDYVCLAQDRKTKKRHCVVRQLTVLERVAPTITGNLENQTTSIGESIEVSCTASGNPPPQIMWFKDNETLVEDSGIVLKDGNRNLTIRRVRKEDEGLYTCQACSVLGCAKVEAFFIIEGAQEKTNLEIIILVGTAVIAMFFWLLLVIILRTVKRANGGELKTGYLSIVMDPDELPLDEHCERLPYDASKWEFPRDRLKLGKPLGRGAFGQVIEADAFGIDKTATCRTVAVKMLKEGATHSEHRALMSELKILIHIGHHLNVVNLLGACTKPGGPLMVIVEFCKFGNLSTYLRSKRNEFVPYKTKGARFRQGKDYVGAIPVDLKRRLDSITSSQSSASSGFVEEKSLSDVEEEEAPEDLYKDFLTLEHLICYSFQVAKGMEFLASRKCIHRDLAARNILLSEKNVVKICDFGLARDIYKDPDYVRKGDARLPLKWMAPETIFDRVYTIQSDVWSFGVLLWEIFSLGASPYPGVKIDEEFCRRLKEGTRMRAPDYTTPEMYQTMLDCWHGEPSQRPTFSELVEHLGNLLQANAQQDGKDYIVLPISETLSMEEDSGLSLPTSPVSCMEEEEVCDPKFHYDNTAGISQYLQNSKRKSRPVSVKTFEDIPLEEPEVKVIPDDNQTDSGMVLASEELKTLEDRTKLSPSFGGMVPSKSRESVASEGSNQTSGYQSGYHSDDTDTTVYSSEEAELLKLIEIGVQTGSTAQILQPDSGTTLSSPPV

Substance	HGF induced activation of Erk ([1]; HGF 20 ng/ml)	VEGF-A121 induced activation of Erk ([1]; VEGF-A121 40 ng/ml)	VEGF-A165 induced activation of Erk [1]	activation of VEGFR-2 by VEGF-A121 ([2]; VEGF-A121 40 ng/ml, 0.5 μg/ml CD44v6ECD)	activation of VEGFR-2 by VEGF-A165 ([2]; VEGF-A165 40 ng/ml)	tumor growth ([3]; 20 μg i.p. three times per week for four weeks)	average vessel number (microvessel density) ([3]; CD31 stained tumor sections, 20 μg i.p. three times per week, five animals each)
CD44v6ECD: soluble CD44v6 ectodomain produced in Pichia pastoris	completely abrogated	completely blocked	completely abrogated	completely blocked			
KEQWFGNRWHEGYR (listed as Homo sapiens) [v6 human peptide (14mer)]			abrogated		abrogated		
QETWFQNGWQGKNP (listed as Mus musculus) [v6 murine peptide]						not influenced	183 per mm^2

Reference: patent publication US8883738B2, “Use of a peptide fragment of CD44v6 in the treatment of ophthalmic diseases” (Karlsruher Institut für Technologie, priority 2009, dated 2014)
